Measured values reported in the NIST ThermoML archive (doi:10.1016/j.jct.2011.01.014).

Experiment: xn = mol fraction of the nth substance listed
Conditions: 101 kPa, Liquid; for mass density: Vibrating tube method; for speed of sound: sound velocity cell

CC(=O)[O-].[NH3+]CCO [2-hydroxyethylammonium acetate] + O
Conditions	mass density [kg/m3]	speed of sound [m/s]
288.15 K, x1 = 0.051	1055.26	1676.3
288.15 K, x1 = 0.1019	1085.14	1768.9
288.15 K, x1 = 0.1963	1116.52	1839
288.15 K, x1 = 0.2894	1131.28	1851.1
288.15 K, x1 = 0.3959	1140.75	1843.1
288.15 K, x1 = 0.5016	1145.83	1833.6
288.15 K, x1 = 0.5821	1148.34	1831.6
288.15 K, x1 = 0.6837	1150.31	1824.3
288.15 K, x1 = 0.7763	1152.17	1824.4
288.15 K, x1 = 0.8761	1153.59	1817.1
288.15 K, x1 = 0.9137	1153.92	1819.5
288.15 K, x1 = 1	1154.7	1817.2
290.65 K, x1 = 0.051	1054.36	1679
290.65 K, x1 = 0.1019	1084.06	1768.6
290.65 K, x1 = 0.1963	1115.24	1836.1
290.65 K, x1 = 0.2894	1129.93	1847.3
290.65 K, x1 = 0.3959	1139.38	1838.7
290.65 K, x1 = 0.5016	1144.47	1828.7
290.65 K, x1 = 0.5821	1146.91	1826.5
290.65 K, x1 = 0.6837	1148.88	1818.9
290.65 K, x1 = 0.7763	1150.75	1818.5
290.65 K, x1 = 0.8761	1152.16	1810.7
290.65 K, x1 = 0.9137	1152.5	1812.8
290.65 K, x1 = 1	1153.28	1810
293.15 K, x1 = 0.051	1053.41	1681.4
293.15 K, x1 = 0.1019	1082.96	1768.1
293.15 K, x1 = 0.1963	1113.95	1833.1
293.15 K, x1 = 0.2894	1128.59	1843.4
293.15 K, x1 = 0.3959	1138.01	1834.2
293.15 K, x1 = 0.5016	1143.09	1823.9
293.15 K, x1 = 0.5821	1145.54	1821.6
293.15 K, x1 = 0.6837	1147.45	1813.6
293.15 K, x1 = 0.7763	1149.34	1812.9
293.15 K, x1 = 0.8761	1150.75	1804.6
293.15 K, x1 = 0.9137	1151.09	1806.5
293.15 K, x1 = 1	1151.87	1803.2
295.65 K, x1 = 0.051	1052.44	1683.6
295.65 K, x1 = 0.1019	1081.85	1767.5
295.65 K, x1 = 0.1963	1112.66	1830.1
295.65 K, x1 = 0.2894	1127.24	1839.5
295.65 K, x1 = 0.3959	1136.62	1829.7
295.65 K, x1 = 0.5016	1141.71	1819.1
295.65 K, x1 = 0.5821	1144.18	1816.5
295.65 K, x1 = 0.6837	1146.02	1808.4
295.65 K, x1 = 0.7763	1147.92	1807.5
295.65 K, x1 = 0.8761	1149.33	1798.7
295.65 K, x1 = 0.9137	1149.67	1800.5
295.65 K, x1 = 1	1150.45	1796.8
298.15 K, x1 = 0.051	1051.43	1685.5
298.15 K, x1 = 0.1019	1080.72	1766.7
298.15 K, x1 = 0.1963	1111.36	1827
298.15 K, x1 = 0.2894	1125.89	1835.5
298.15 K, x1 = 0.3959	1135.24	1825.2
298.15 K, x1 = 0.5016	1140.33	1814.2
298.15 K, x1 = 0.5821	1142.82	1811.6
298.15 K, x1 = 0.6837	1144.63	1803.3
298.15 K, x1 = 0.7763	1146.5	1802.1
298.15 K, x1 = 0.8761	1147.91	1793
298.15 K, x1 = 0.9137	1148.26	1794.7
298.15 K, x1 = 1	1149.04	1790.7
300.65 K, x1 = 0.051	1050.38	1687.2
300.65 K, x1 = 0.1019	1079.57	1765.8
300.65 K, x1 = 0.1963	1110.06	1823.9
300.65 K, x1 = 0.2894	1124.53	1831.6
300.65 K, x1 = 0.3959	1133.86	1820.6
300.65 K, x1 = 0.5016	1138.94	1809.4
300.65 K, x1 = 0.5821	1141.44	1806.7
300.65 K, x1 = 0.6837	1143.27	1798.2
300.65 K, x1 = 0.7763	1145.08	1796.9
300.65 K, x1 = 0.8761	1146.49	1787.4
300.65 K, x1 = 0.9137	1146.85	1789.1
300.65 K, x1 = 1	1147.63	1784.8
303.15 K, x1 = 0.051	1049.3	1688.6
303.15 K, x1 = 0.1019	1078.39	1764.8
303.15 K, x1 = 0.1963	1108.74	1820.6
303.15 K, x1 = 0.2894	1123.17	1827.5
303.15 K, x1 = 0.3959	1132.47	1816
303.15 K, x1 = 0.5016	1137.56	1804.6
303.15 K, x1 = 0.5821	1140.07	1801.9
303.15 K, x1 = 0.6837	1141.9	1793.2
303.15 K, x1 = 0.7763	1143.67	1791.7
303.15 K, x1 = 0.8761	1145.07	1782
303.15 K, x1 = 0.9137	1145.43	1783.6
303.15 K, x1 = 1	1146.22	1779
305.65 K, x1 = 0.051	1048.18	–
305.65 K, x1 = 0.1019	1077.21	–
305.65 K, x1 = 0.1963	1107.43	–
305.65 K, x1 = 0.2894	1121.8	–
305.65 K, x1 = 0.3959	1131.08	–
305.65 K, x1 = 0.5016	1136.16	–
305.65 K, x1 = 0.5821	1138.68	–
305.65 K, x1 = 0.6837	1140.52	–
305.65 K, x1 = 0.7763	1142.31	–
305.65 K, x1 = 0.8761	1143.65	–
305.65 K, x1 = 0.9137	1144.01	–
305.65 K, x1 = 1	1144.8	–
